Experiments:
recombinant QC enzyme = molecular target: T1, recombinant QC enzyme (Homo sapiens, UniProt Q16769); experiment: Assay 2 - QC potency, fluorescent enzymatic assay (H-Gln-AMC, coupled pGAPase detection); assay type: biochemical; details: 1 hour at 37°C
T1 construct: bacterial expression of residues 33-361 of uniprot ID Q16769, fused to a His tag; His tag (cleaved yes); made in house
Method: After scale-up, expression and lysis, protein was purified by Ni-NTA IMAC, dialysed in the presence of Factor Xa, further purified by Ni-NTA reverse IMAC and finally filtrated for size on a Superdex 200 16/60 column. Final protein was concentrated using a spin concentrator at 10 kDa molecular weight cut-off and formulated in 150 mM NaCl, 50 mM Tris-HCl, 50% Glycerol, pH 8.0.
(§1) Pyroglutamylation was measured by conversion of glutamine-4-amino-7-methylcoumarine (H-Gln-AMC, Bachem) to pyroglutamyl-AMC, which is subsequently a specific substrate for pyroglutamylaminopeptidase (pGAPase, Qiagen), releasing free AMC which can be fluorescently detected. For a typical inhibition assay, 7.5 µL aliquots of threefold dilutions of test compound in 50 mM Tris pH8 buffer were plated in 384-well plates. 15 µL 20 µM h-Gln-AMC (diluted from a 40 mM stock dissolved in 25 mM HEPES using 50 mM Tris-HCl pH 8.0) was added to each well. Finally, 7.5 µL, 3 ng/µL recombinant QC enzyme was added and the reaction mixture was incubated for 1 hour at 37°C. A 5 minute incubation at 98°C was then performed to denature the QC enzyme and stop the reaction.
25 µL of the pyroglutamylation reaction mixture was transferred into an empty plate and to that, 25 µL of the pGAPase enzyme solution was added. Plates were then incubated for 25 minutes at room temperature before fluorescence readings were taken on an Envision2 plate reader with excitation set at 380 nm and emission at 450 nm.
Controls were taken along containing pyroglutamylated-AMC (Bachem, dissolved at 10 mM in DMSO) instead of H-Gln-AMC to control for pGAPase inhibition.
(§2) IC50 values are calculated using non-linear regression analysis with GraphPad Prism software.

pyroglutamylated CD47 = experiment: Assay 3 - cell-based potency assay (pyroglutamylation in live cells, total CD47/pE-CD47 dual staining, FACS); set-up: species or system human; details: IC50 of CC2C6 signal, KBM7 cells, 72 hours incubation
Method: Cells were spun for 4 minutes at 1500 rpm and washed once with PBS / 0.5% BSA. Cells were spun down again and the supernatant was removed and incubated in 100 uL antibody staining solution (PBS / 0.5% BSA / 0.1 µg/mL DAPI (4',6-diamidino-2-phenylindole, ThermoFisher Scientific) and a mixture of 1:500 FITC-conjugated anti-human CD47 clone 2D3, which recognizes total CD47 irrespective of its pyroglutamylation state, and 1:500 Alexa647-conjugated anti-human CD47 clone CC2C6, which specifically detects pyroglutamylated CD47) for 2 hours at 4°C. Next, the cells were spun down and washed twice with 2 x 150 µL PBS / 0.5% BSA to remove unbound antibody. Cells were again spun down and taken up in 300 µL FACS buffer before analysis on a Celesta FACS machine (BD Biosciences).
KBM7 cells (Kotecki et al., 1999) were infected with lentivirus produced by transfecting pSCNC-LentiCRISPR-QPCTL or pSCNC-LentiCRISPR-CD47 into HEK-293T cells according to standard protocols. After 24 hours incubation, cells were selected with puromycin (Invivogen, 1 µg/mL) for 48 hours. Cells were stained for total CD47 and pE-CD47 and QPCTL k.o. cells were sorted out as negative for pE-CD47, and CD47 k.o. cells as negative for total CD47, using a FACSAria III and FACS Diva software (BD Biosciences).
In order to test compounds for their effect on pyroglutamylation in live cells, 25000 KBM7 cells per well were seeded in a 96-well U-bottom plate in 150 µl IMDM / 10% FCS / 1% Pen / Strep medium and a 10-point 2-fold dilution range of test compounds. After 72 hours incubation at 37°C, 5% COz, cells were stained for total CD47 and pE-CD47 and analysed on a BD Celesta using FACS Diva software (BD Biosciences). Cells gated for DAPI negativity were recorded and the median fluorescence intensity (MFI) of each sample was transformed to linearly scale between the MFI's of wildtype and CD47 knockout cells (in case of the 2D3 antibody) and the wildtype and QPCTL knockout cells (in case of the CC2C6 antibody). ICso's were calculated by 3 parameter logistic regression of the CC2C6 signal vs. compound concentration, where the top of the sigmoidal curve was fixed at 1, using R and the drc package (http://www.r-project.org, https://cran.r-project.org/web/packages/drc/index.html).

human isoQC = molecular target: T2, human isoQC (Homo sapiens, UniProt Q9NXS2); experiment: Assay 1 - isoQC potency, fluorescent enzymatic assay (H-Gln-AMC, coupled pGAPase detection); assay type: biochemical; details: recombinant isoQC, 1 hour at 37°C
T2 construct: The Golgi luminal, enzymatically active region of human isoQC (S53-L382; see, e.g., Huang et al., 2011); GST (with enterokinase site) (N, cleaved yes); made in house; host or cells: E. coli
T2 sequence (Q9NXS2 53-382): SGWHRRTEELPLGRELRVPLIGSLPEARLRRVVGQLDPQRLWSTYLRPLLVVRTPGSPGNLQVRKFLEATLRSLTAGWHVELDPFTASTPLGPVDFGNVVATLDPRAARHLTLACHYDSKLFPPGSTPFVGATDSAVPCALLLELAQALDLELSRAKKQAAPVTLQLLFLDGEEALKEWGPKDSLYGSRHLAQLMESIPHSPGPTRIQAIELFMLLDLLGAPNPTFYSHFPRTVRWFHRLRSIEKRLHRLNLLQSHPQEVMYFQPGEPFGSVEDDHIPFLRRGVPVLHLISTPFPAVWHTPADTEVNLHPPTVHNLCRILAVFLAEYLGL
From the text: The Golgi luminal, enzymatically active region of human isoQC (S53-L382; see, e.g., Huang et al., 2011) was obtained by expression in E. coli of an N-terminally GST Enterokinase and C-terminally 6xHis tagged construct in the pET41(+) vector and subsequent purification using Ni-NTA IMAC. Enterokinase digestion ensued, followed by another Ni-NTA IMAC purification, Superdex75 based size exclusion and finally a spin concentration using a 10 kDa molecular weight cutoff. The final protein is formulated in 50 mM Tris-HCl, 150 mM NaCl, 50% Glycerol, pH 7.8.
as §1, with “in 50mM” for “in 50 mM”, “µM hGln-AMC” for “µM h-Gln-AMC”, “Tris-HCl 25” for “Tris-HCl”, “recombinant isoQC” for “recombinant QC”, “the isoQC” for “the QC”
To detect the amount of pyroglutamyl-AMC formed, a 0.125 U/mL pGAPase enzyme diluted in 50 mM Tris-HCl pH 8.0 containing 10 mM dithiothreitol (DTT) solution was prepared. 25 µL of the pyroglutamylation reaction mixture was transferred into an empty plate and to that, 25 µL of the pGAPase enzyme solution was added. Plates were then incubated for 25 minutes at room temperature before fluorescence readings were taken on an Envision2 plate reader with excitation set at 380 nm and emission at 450 nm. DMSO concentrations during the assay never exceeded 1% and activities were compared to controls containing only the same amount of DMSO and no test compound. Controls were taken along containing pyroglutamylated-AMC (Bachem, dissolved at 10 mM in DMSO) instead of H-Gln-AMC to control for pGAPase inhibition.
as §2

T1 sequence (Q16769 33-361): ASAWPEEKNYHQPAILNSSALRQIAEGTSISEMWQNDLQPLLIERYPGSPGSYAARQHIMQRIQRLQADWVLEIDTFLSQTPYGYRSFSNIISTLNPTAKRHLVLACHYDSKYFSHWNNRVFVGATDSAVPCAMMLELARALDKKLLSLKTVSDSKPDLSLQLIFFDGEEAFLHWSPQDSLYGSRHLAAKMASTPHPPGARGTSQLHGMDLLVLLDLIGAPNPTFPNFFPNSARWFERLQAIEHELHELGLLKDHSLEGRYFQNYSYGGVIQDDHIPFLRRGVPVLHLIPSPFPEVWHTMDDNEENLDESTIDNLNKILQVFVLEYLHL

| SMILES | IC50 (recombinant QC enzyme) | IC50 (pyroglutamylated CD47; Homo sapiens, KBM-7, 72 h) | IC50 (human isoQC) | IC50 (pyroglutamylated CD47) |
| --- | --- | --- | --- | --- |
| O=C1OCC(c2cc(F)cc(C(F)(F)F)c2)N1c1ccc2[nH]cnc2c1 (racemic) [(17)-Rac, reference compound] | 1730 nM | > 50000 nM | 1200 nM |  |
| O=C1OCC(c2ccc(N3CCCC3)cc2)N1c1ccc2[nH]cnc2c1 (racemic) [(18)-Rac, reference compound] | 49.1 nM | 8510 nM | 48.4 nM |  |
| O=C1OCC(c2ccc(C3CCC(F)(F)CC3)cc2)N1c1ccc2[nH]cnc2c1 (racemic) [(19)-Rac, reference compound] |  | 10400 nM | 63.7 nM |  |
| O=C1OCC(c2cc(F)cc(C(F)(F)F)c2)N1c1ccc2[nH]cnc2c1 (single isomer, unassigned) [(17)-ent1, reference compound] | > 10000 nM | > 50000 nM | 10900 nM |  |
| O=C1OCC(c2ccc(N3CCCC3)cc2)N1c1ccc2[nH]cnc2c1 (single isomer, unassigned) [(18)-ent1, reference compound] | 2530 nM |  | 1170 nM | > 50000 nM |
| O=C1OCC(c2ccc(C3CCC(F)(F)CC3)cc2)N1c1ccc2[nH]cnc2c1 (single isomer, unassigned) [(19)-ent1, reference compound] |  |  | 1240 nM | > 12500 nM |
| O=C1OC[C@H](c2ccc(-c3cnn(C(F)(F)F)c3)c(F)c2F)N1c1ccc2[nH]cnc2c1 [(2)] | 38.9 nM | 106 nM | 4 nM |  |
| O=C1OC[C@H](c2ccc(-c3ccn(C(F)(F)F)n3)cc2F)N1c1ccc2[nH]cnc2c1 [(5)] | 34.7 nM | 659 nM | 7.7 nM |  |
| O=C1OC[C@H](c2ccc(-c3cnn(C(F)(F)F)n3)cc2F)N1c1ccc2[nH]cnc2c1 [(6)] | 15.1 nM |  | 3 nM |  |
| O=C1OC[C@H](c2ccc(-c3ccc(C(F)(F)F)o3)cc2F)N1c1ccc2[nH]cnc2c1 [(7)] | 70.1 nM | 503 nM | 10 nM |  |
| O=C1OC[C@H](c2ccc(-c3ccc(C(F)(F)F)s3)cc2F)N1c1ccc2[nH]cnc2c1 [(8)] | 86 nM | 526 nM | 13.4 nM |  |
| O=C1OC[C@H](c2ccc(-c3nc(C(F)(F)F)cs3)cc2F)N1c1ccc2[nH]cnc2c1 [(9)] | 36.1 nM | 622 nM | 9 nM |  |
| O=C1OC[C@H](c2ccc(-c3noc(C(F)(F)F)n3)cc2F)N1c1ccc2[nH]cnc2c1 [(10)] | 48.2 nM |  | 12.6 nM |  |
| O=C1OC[C@H](c2ccc(-c3cc(C(F)(F)F)no3)cc2F)N1c1ccc2[nH]cnc2c1 [(11)] | 24.3 nM | 252 nM | 5.2 nM |  |
| O=C1OC[C@H](c2ccc(-c3cnn(C(F)F)c3)cc2F)N1c1ccc2[nH]cnc2c1 [(12)] | 7.5 nM | 157 nM | 3.3 nM |  |
| O=C1OC[C@H](c2ccc(-c3cnn(CF)c3)cc2F)N1c1ccc2[nH]cnc2c1 [(13)] | 11.3 nM | 401 nM | 4 nM |  |
| O=C1OC[C@H](c2ccc(-c3cnn(C4CC4(F)F)c3)cc2F)N1c1ccc2[nH]cnc2c1 (stereo partly drawn) [(14)] | 12.7 nM |  | 3.6 nM |  |
| O=C1OC[C@H](c2ccc(-c3cnn(CC(F)F)c3)cc2F)N1c1ccc2[nH]cnc2c1 [(15)] | 8 nM | 155 nM | 2.7 nM |  |
| O=C1OC[C@H](c2ccc(-c3cnn(C4CC(F)(F)C4)c3)cc2F)N1c1ccc2[nH]cnc2c1 [(16)] | 9.4 nM |  | 5.1 nM |  |

Reference: patent EP4455142A1, “NOVEL INHIBITOR OF QPCTL AND/OR QC” (Scenic Immunology B.V., priority 2023, dated 2024)
